Where “and” joins values, the source holds several entries; their conditions need not be identical. Equal entries are not always repeated. Inconclusive results and toxic doses are left out.
Tested on: P388 leukemia ip, CD2F1 mice, survival T/C
Assay: NCI In Vivo Anticancer Drug Screen. Data for tumor model P388 Leukemia (intraperitoneal) in CD2F1 (CDF1) mice
Conditions: endpoint: median survival time, higher = longer survival
Outline: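 Mice carrying the transplanted tumor received test compound or vehicle. Survival was recorded in each group, and the value is the treated-group measurement divided by that of the vehicle-treated control group.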

[1] = dose: 100.0 mg/kg/injection, schedule: Q01DX009 (ip), vehicle: saline with Tween-80
[2] = dose: 100.0 mg/kg/injection, schedule: Q04DX003 (ip), vehicle: saline with Tween-80
[3] = dose: 200.0 mg/kg/injection, schedule: Q01DX009 (ip), vehicle: saline with Tween-80
[4] = dose: 400.0 mg/kg/injection, schedule: Q01DX009 (ip), vehicle: saline with Tween-80
[5] = dose: 12.5 mg/kg/injection, schedule: Q01DX009 (ip), vehicle: saline
[6] = dose: 25.0 mg/kg/injection, schedule: Q01DX009 (ip), vehicle: saline
[7] = dose: 50.0 mg/kg/injection, schedule: Q01DX009 (ip), vehicle: saline
[8] = dose: 50.0 mg/kg/injection, schedule: Q01DX009 (ip), vehicle: saline with Tween-80
[9] = dose: 12.5 mg/kg/injection, schedule: Q01DX009 (ip), vehicle: saline with Tween-80
[10] = dose: 25.0 mg/kg/injection, schedule: Q01DX009 (ip), vehicle: saline with Tween-80
[11] = dose: 60.0 mg/kg/injection, schedule: Q01DX005 (ip), vehicle: Klucel (hydroxypropylcellulose) (HPC)
[12] = dose: 120.0 mg/kg/injection, schedule: Q01DX005 (ip), vehicle: Klucel (hydroxypropylcellulose) (HPC)
[13] = dose: 60.0 mg/kg/injection, schedule: Q01DX005 (ip), vehicle: saline with Tween-80
[14] = dose: 120.0 mg/kg/injection, schedule: Q01DX005 (ip), vehicle: saline with Tween-80
[15] = dose: 240.0 mg/kg/injection, schedule: Q01DX005 (ip), vehicle: saline with Tween-80
[16] = dose: 25.0 mg/kg/injection, schedule: Q01DX005 (ip), vehicle: saline with Tween-80
[17] = dose: 50.0 mg/kg/injection, schedule: Q01DX005 (ip), vehicle: saline with Tween-80
[18] = dose: 100.0 mg/kg/injection, schedule: Q01DX005 (ip), vehicle: saline with Tween-80
[19] = dose: 50.0 mg/kg/injection, schedule: Q01DX009 (ip), vehicle: Klucel (hydroxypropylcellulose) (HPC)
[20] = dose: 100.0 mg/kg/injection, schedule: Q01DX009 (ip), vehicle: Klucel (hydroxypropylcellulose) (HPC)
[21] = dose: 200.0 mg/kg/injection, schedule: Q01DX009 (ip), vehicle: Klucel (hydroxypropylcellulose) (HPC)

In the case of `COC(=O)/C=C/N(Cc1ccccc1)Cc1ccccc1`, the T/C [1] is reported as 100 % of control, the T/C [2] is reported as 95 % of control and the T/C [3] is reported as 100 % of control. The T/C (dose: 200.0 mg/kg/injection, schedule: Q04DX003 (ip), vehicle: saline with Tween-80) was 95 % of control, the T/C [4] was 100 % of control and the T/C (dose: 400.0 mg/kg/injection, schedule: Q04DX003 (ip), vehicle: saline with Tween-80) was 95 % of control.

For `CC1(C(=O)O)CCC2(C(=O)O)CCC3(C)C(=CCC4C5(C)CC(O)C(O)C(C)(CO)C5CCC43C)C2C1` (configuration not stated), the T/C (dose: 6.25 mg/kg/injection, schedule: Q01DX009 (ip), vehicle: saline) was 100 % of control, the T/C [5] was 100 % of control and the T/C [6] was 96 % of control.

With `COC(=O)NC1CC=CCC1I` (configuration not stated) the T/C [5] was 96 % of control, the T/C [6] was 105 % of control and the T/C [7] was 106 % of control.

`COc1cc(C2c3cc4c(cc3C3OC(=O)C2C3CO)OCO4)cc(OC)c1OC` (configuration not stated) was tested, and the T/C (dose: 0.12 mg/kg/injection, schedule: Q01DX009 (ip), vehicle: Klucel (hydroxypropylcellulose) (HPC)) was 117 % of control, the T/C (dose: 0.25 mg/kg/injection, schedule: Q01DX009 (ip), vehicle: Klucel (hydroxypropylcellulose) (HPC)) was 115 % of control and the T/C (dose: 0.5 mg/kg/injection, schedule: Q01DX009 (ip), vehicle: Klucel (hydroxypropylcellulose) (HPC)) was 120 % of control. The T/C (dose: 3.12 mg/kg/injection, schedule: Q01DX009 (ip), vehicle: Klucel (hydroxypropylcellulose) (HPC)) was 118 % of control and the T/C (dose: 6.25 mg/kg/injection, schedule: Q01DX009 (ip), vehicle: Klucel (hydroxypropylcellulose) (HPC)) was 118 % of control.

In the case of `CC(C)(C)N=C(CCN1CCCCC1)Nc1ccc([N+](=O)[O-])cc1`, the T/C [8] is reported as 112 % of control, the T/C [1] is reported as 110 % of control and the T/C [3] is reported as 103 % of control.

In the case of `NC(N)=N/N=C/c1ccc(Cl)c(Cl)c1`, the T/C [9] is reported as 100 % of control, the T/C [10] is reported as 95 % of control and the T/C [8] is reported as 86 % of control.

With `CCCCCCCCCc1ccc(OCCOCCOCCOCCOCCOCCOCCOCCOCCOC(C)N2CCCC2=O)cc1` (configuration not stated) the T/C (dose: 6.25 mg/kg/injection, schedule: Q01DX009 (ip), vehicle: saline with Tween-80) was 110 % of control, the T/C [9] was 115 % of control and the T/C [10] was 120 % of control.

With `C1=CCONC1` the T/C (dose: 50.0 mg/kg/injection, schedule: Q04DX003 (ip), vehicle: saline) was 93 % of control, the T/C (dose: 100.0 mg/kg/injection, schedule: Q04DX003 (ip), vehicle: saline) was 104 % of control and the T/C (dose: 200.0 mg/kg/injection, schedule: Q04DX003 (ip), vehicle: saline) was 92 % of control.

With `CC1=C(C(N)=O)C(/C=C/c2ccccc2)NC(=S)N1` (configuration not stated) the T/C [11] was 106 % of control, the T/C [12] was 100 % of control and the T/C (dose: 240.0 mg/kg/injection, schedule: Q01DX005 (ip), vehicle: Klucel (hydroxypropylcellulose) (HPC)) was 100 % of control.

In the case of `N#Cc1c(-c2ccccc2)ssc1=S`, the T/C [13] is reported as 104 % of control, the T/C [14] is reported as 103 % of control and the T/C [15] is reported as 106 % of control.

In the case of `C/C(=N/N=C(N)N)c1cn[nH]c1C`, the T/C [11] is reported as 107 % of control and the T/C [12] is reported as 100 % of control.

With `CC(CCN1CCOCC1)Nc1ccnc2cc(Cl)ccc12` (configuration not stated) the T/C (dose: 12.5 mg/kg/injection, schedule: Q01DX005 (ip), vehicle: saline) was 98 % of control, the T/C (dose: 25.0 mg/kg/injection, schedule: Q01DX005 (ip), vehicle: saline) was 102 % of control and the T/C (dose: 50.0 mg/kg/injection, schedule: Q01DX005 (ip), vehicle: saline) was 107 % of control and 95 % of control.

With `N#CCCSc1ccccc1N=Cc1ccccc1O` the T/C [7] was 101 % of control, the T/C (dose: 100.0 mg/kg/injection, schedule: Q01DX009 (ip), vehicle: saline) was 99 % of control and the T/C (dose: 200.0 mg/kg/injection, schedule: Q01DX009 (ip), vehicle: saline) was 95 % of control.

`CCN(CCO)CC(C)Nc1ccc([N+](=O)[O-])c2sc3ccccc3c(=O)c12` (configuration not stated) was tested, and the T/C [10] was 159 % of control, the T/C [8] was 190 % of control and 213 % of control and the T/C (dose: 66.0 mg/kg/injection, schedule: Q04DX003 (ip), vehicle: saline with Tween-80) was 159 % of control. The T/C [1] was 100 % of control, the T/C [2] was 213 % of control and the T/C (dose: 150.0 mg/kg/injection, schedule: Q04DX003 (ip), vehicle: saline with Tween-80) was 118 % of control.

For `Cc1c(N(C)C)nc2cc(N(C)C)ccc2c1Cl`, the T/C [8] was 91 % of control, the T/C [1] was 92 % of control and the T/C [3] was 91 % of control.

In the case of `C=Cc1cc(OCC)c(OC)c2ccc3ccc(OC)c(OC)c3c12`, the T/C (dose: 100.0 mg/kg/injection, schedule: Q01DX001 (ip), vehicle: Klucel (hydroxypropylcellulose) (HPC)) is reported as 95 % of control, the T/C (dose: 200.0 mg/kg/injection, schedule: Q01DX001 (ip), vehicle: Klucel (hydroxypropylcellulose) (HPC)) is reported as 103 % of control and the T/C (dose: 400.0 mg/kg/injection, schedule: Q01DX001 (ip), vehicle: Klucel (hydroxypropylcellulose) (HPC)) is reported as 92 % of control.

For `CC1=CC(=O)C(=O)C2=C1OC1(C2)C(C)CCC2C3(C)CCC(O)C(C)(C)C3CCC21C` (configuration not stated), the T/C (dose: 25.0 mg/kg/injection, schedule: Q01DX005 (ip), vehicle: distilled water + Tween-80) was 95 % of control, the T/C [16] was 95 % of control and the T/C (dose: 50.0 mg/kg/injection, schedule: Q01DX005 (ip), vehicle: distilled water + Tween-80) was 115 % of control. The T/C [17] was 111 % of control and the T/C [18] was 109 % of control.

In the case of `CCN(CC)c1ccc2[nH]c3c(C(N)=O)cc(=O)c(=O)c=3oc2c1`, the T/C (dose: 12.5 mg/kg/injection, schedule: Q01DX005 (ip), vehicle: saline with Tween-80) is reported as 104 % of control and 107 % of control, the T/C [16] is reported as 104 % of control and 117 % of control and the T/C [17] is reported as 107 % of control and 120 % of control. The T/C [18] was 113 % of control and 122 % of control and 123 % of control.

In the case of `CNC(=S)C(N)CCCC1NC(=S)N(C)C1=O` (configuration not stated), the T/C [13] is reported as 99 % of control, the T/C [14] is reported as 89 % of control and the T/C [15] is reported as 88 % of control.

For `CC(C)C1CCC(C)(Cl)C2CCC(C)(Cl)CC12` (configuration not stated), the T/C (dose: 100.0 mg/kg/injection, schedule: Q04DX003 (ip), vehicle: other) was 90 % of control, the T/C (dose: 200.0 mg/kg/injection, schedule: Q04DX003 (ip), vehicle: other) was 100 % of control and the T/C (dose: 400.0 mg/kg/injection, schedule: Q04DX003 (ip), vehicle: other) was 100 % of control.

`CC(=O)NC(CO)C(=O)c1ccc(S(=O)(=O)c2ccccc2)cc1` (configuration not stated) was tested, and the T/C [1] was 97 % of control, the T/C [3] was 91 % of control and the T/C [4] was 94 % of control.

For `N/C(=N\OC1(c2ccccc2)OC(=O)C(=O)/C1=C(/O)c1ccccc1)c1ccccc1` (configuration not stated), the T/C [13] was 102 % of control and the T/C [14] was 100 % of control.

`COC(=O)CCCOc1ccc(N(CCCl)CCCl)cc1` was tested, and the T/C (dose: 100.0 mg/kg/injection, schedule: Q04DX003 (ip), vehicle: Klucel (hydroxypropylcellulose) (HPC)) was 194 % of control and the T/C (dose: 200.0 mg/kg/injection, schedule: Q04DX003 (ip), vehicle: Klucel (hydroxypropylcellulose) (HPC)) was 223 % of control.

With `COCC1OC2OC3C(COC)OC(OC4C(COC)OC(OC5C(COC)OC(OC6C(COC)OC(OC7C(COC)OC(OC8C(COC)OC(OC1C(O)C2O)C(O)C8O)C(O)C7O)C(O)C6O)C(O)C5O)C(O)C4O)C(O)C3O` (configuration not stated) (tested in a mixture with another compound) the T/C (dose: 25.0 mg/kg/injection, schedule: Q01DX009 (ip), vehicle: Klucel (hydroxypropylcellulose) (HPC)) was 100 % of control and 102 % of control, the T/C [19] was 99 % of control and 100 % of control and the T/C [20] was 98 % of control. The T/C [21] was 95 % of control and 97 % of control and the T/C (dose: 400.0 mg/kg/injection, schedule: Q01DX009 (ip), vehicle: Klucel (hydroxypropylcellulose) (HPC)) was 93 % of control and 95 % of control.

For `O=C1c2cccc([N+](=O)[O-])c2C(=O)C1c1ccccn1` (configuration not stated), the T/C [8] was 99 % of control, the T/C [1] was 87 % of control and the T/C [3] was 96 % of control. The T/C [4] was 97 % of control.

In the case of `CCOC(=O)c1ccc(NC(=S)P(=O)(c2ccccc2)c2ccccc2)cc1`, the T/C [19] is reported as 88 % of control, the T/C [20] is reported as 89 % of control and the T/C [21] is reported as 94 % of control.

In the case of `Nc1ccc2c(n1)NCC/C2=N\Nc1ccc(F)cc1`, the T/C [8] is reported as 105 % of control and the T/C [1] is reported as 105 % of control.

`CC(C)(O)c1cc2nc3ccccc3nc2n1CCO` was tested, and the T/C [13] was 109 % of control, the T/C [14] was 107 % of control and the T/C [15] was 108 % of control.

`Cc1ccc(S(=O)(=O)OC(C)c2[nH]c(=O)n(C3CCCO3)c(=O)c2F)cc1` (configuration not stated) was tested, and the T/C [17] was 99 % of control, the T/C [18] was 91 % of control and the T/C (dose: 200.0 mg/kg/injection, schedule: Q01DX005 (ip), vehicle: saline with Tween-80) was 93 % of control.

— PubChem BioAssay AID330 (DTP/NCI, 2004)
